Data as given in patent US20240368181A1, “QUINOXALINE DERIVATIVES AND USES THEREOF” (Black Diamond Therapeutics, Inc., priority 2021, published 2024).
pIC50: −log10 of the molar value.

Columns and labels:
Format in all cases: cell-based
[1] = test system: SNU-16 (FGFR2-amplification) cells; test: cell proliferation assay (CellTiterGlo), SNU-16 cells; conditions: 72 hours
How it was run: (§1)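 Each line was seeded and treated with varying compound concentrations or vehicle. Proliferation was read as CellTiterGlo ATP luminescence, and IC50 values were calculated from growth relative to vehicle-treated wells.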

[2] = test system: UM-UC-14 (FGFR3-S249C) cells; test: cell proliferation assay (CellTiterGlo), UM-UC-14 cells
How it was run: as §1

[3] = test system: DMS-114 (FGFR1 overexpression) cells; test: cell proliferation assay (CellTiterGlo), DMS-114 cells
How it was run: as §1

[4] = test system: RT-112 (FGFR3-Tacc3 fusion) cells; test: cell proliferation assay (CellTiterGlo), RT-112 cells; conditions: 72 hours
How it was run: as §1

[5] = Homo sapiens, RT-112, RT112 cells

Row | SMILES | pIC50 ([1]; Homo sapiens) | pIC50 ([2]; UMUC14, 72 h) | pIC50 ([3]; Homo sapiens, DMS-114, 72 h) | pIC50 [4, 5] | pIC50 [1] | pIC50 ([2]; 72 hours) | pIC50 ([3]; 72 hours) | pIC50 ([4]; RT112 cells)
1 | Cc1nc2ccc(Oc3ccc4ncc(-c5cnn([C@H]6CCN(CC(F)(F)F)C[C@@H]6F)c5)nc4c3Cl)cc2[nH]1 [Compound 262] | 7.00 to 7.70 | 6.40 to 7.00 | ≤ 6.40 | 7.00 to 7.70 | – | – | – | –
2 | Cc1nc2ccc(Oc3ccc4ncc(-c5cnn(CC(=O)N6CC[C@H](F)C6)c5)nc4c3Cl)cc2[nH]1 [Compound 284] | 7.00 to 7.70 | 7.00 to 7.70 | ≤ 6.40 | 7.00 to 7.70 | – | – | – | –
3 | Cc1nc2ccc(Oc3ccc4ncc(-c5cnn(CC6CCNCC6(F)F)c5)nc4c3Cl)cc2[nH]1 (stereo not drawn) [Compound 386] | 7.00 to 7.70 | 7.00 to 7.70 | ≤ 6.40 | 7.00 to 7.70 | – | – | – | –
4 | Cc1nc2ccc(Oc3ccc4ncc(-c5cnn(CCC(F)F)c5)nc4c3Cl)cc2[nH]1 [Compound 92] | 6.40 to 7.00 | 6.40 to 7.00 | ≤ 6.40 | 6.40 to 7.00 | – | – | – | –
5 | Cc1nc2ccc(Oc3ccc4ncc(-c5cnn(C6CCN(C)CC6)c5)nc4c3Cl)cc2[nH]1 [Compound 370] | > 7.70 | 7.00 to 7.70 | 6.40 to 7.00 | 7.00 to 7.70 | – | – | – | –
6 | Cc1nc2ccc(Oc3ccc4ncc(-c5cnn(CC6CC(F)(F)C6)c5)nc4c3Br)cc2[nH]1 [Compound 243] | 7.00 to 7.70 | 7.00 to 7.70 | ≤ 6.40 | 7.00 to 7.70 | – | – | – | –
7 | Cc1nc2ccc(Oc3ccc4ncc(-c5cnn([C@@H](C)C6CC(F)(F)C6)c5)nc4c3Cl)c(F)c2[nH]1 [Compound 108] | > 7.70 | 7.00 to 7.70 | 6.40 to 7.00 | 7.00 to 7.70 | – | – | – | –
8 | Cc1nc2ccc(Oc3ccc4ncc(-c5cnn(CC67COC(C6)C7)c5)nc4c3Cl)cc2[nH]1 [Compound 343] | > 7.70 | 7.00 to 7.70 | ≤ 6.40 | > 7.70 | – | – | – | –
9 | Cc1nc2ccc(Oc3ccc4ncc(-c5cnn(CCN6CCC6)c5)nc4c3Cl)cc2[nH]1 [Compound 239] | ≤ 6.40 | ≤ 6.40 | ≤ 6.40 | ≤ 6.40 | – | – | – | –
10 | Cc1nc2ccc(Oc3ccc4ncc(-c5cnn(CC(C)(O)C(F)(F)F)c5)nc4c3Cl)c(F)c2[nH]1 (stereo not drawn) [Compound 122] | 7.00 to 7.70 | 7.00 to 7.70 | ≤ 6.40 | 7.00 to 7.70 | – | – | – | –
11 | Cc1nc2ccc(Oc3ccc4ncc(-c5cnn(CC6CC7CC6CN7C)c5)nc4c3Cl)cc2[nH]1 (stereo not drawn) [Compound 379] | 7.00 to 7.70 | 7.00 to 7.70 | 6.40 to 7.00 | 7.00 to 7.70 | – | – | – | –
12 | Cc1nc2ccc(Oc3ccc4ncc(-c5cnn([C@H]6CCN(C7COC7)C[C@@H]6F)c5)nc4c3Cl)cc2[nH]1 [Compound 360] | 7.00 to 7.70 | 7.00 to 7.70 | ≤ 6.40 | 7.00 to 7.70 | – | – | – | –
13 | Cc1nc2ccc(Oc3ccc4ncc(-c5cnn([C@H]6CC7(C[C@@H](O)C7)C6)c5)nc4c3Cl)c(F)c2[nH]1 (stereo partly drawn) [Compound 128] | – | – | – | – | > 7.70 | > 7.70 | 6.40 to 7.00 | > 7.70
14 | Cc1nc2ccc(Oc3ccc4ncc(-c5cnn(C(C)(C)CC#N)c5)nc4c3Cl)cc2[nH]1 [Compound 255] | 7.00 to 7.70 | 7.00 to 7.70 | ≤ 6.40 | 7.00 to 7.70 | – | – | – | –
15 | Cc1nc2ccc(Oc3ccc4ncc(-c5cnn([C@H]6C[C@H](N7C[C@@H]8C[C@H]7CO8)C6)c5)nc4c3Cl)cc2[nH]1 [Compound 203] | 7.00 to 7.70 | 7.00 to 7.70 | ≤ 6.40 | 7.00 to 7.70 | – | – | – | –
16 | Cc1nc2ccc(Oc3ccc4ncc(-c5cnn(C6CN(C(=O)N(C)C)C6)c5)nc4c3Cl)cc2[nH]1 [Compound 184] | 7.00 to 7.70 | 7.00 to 7.70 | ≤ 6.40 | 7.00 to 7.70 | – | – | – | –
17 | FC1(F)CC(Cn2cc(-c3cnc4ccc(Oc5ccc6[nH]c(C(F)(F)F)nc6c5)c(Cl)c4n3)cn2)C1 [Compound 224] | ≤ 6.40 | ≤ 6.40 | ≤ 6.40 | ≤ 6.40 | – | – | – | –

Row | SMILES | pIC50 ([1]; Homo sapiens) | pIC50 ([2]; UMUC14, 72 h) | pIC50 ([3]; Homo sapiens, DMS-114, 72 h) | pIC50 [4, 5] | pIC50 [1] | pIC50 ([2]; 72 hours) | pIC50 ([3]; 72 hours) | pIC50 ([4]; RT112 cells)
18 | Cc1nc2ccc(Oc3ccc4ncc(-c5cnn(C[C@@H](C)O)c5)nc4c3Cl)c(F)c2[nH]1 [Compound 130] | > 7.70 | > 7.70 | 6.40 to 7.00 | > 7.70 | – | – | – | –
19 | Cc1nc2ccc(Oc3ccc4ncc(-c5cnn(CC6CC(F)(F)C6)c5)nc4c3C3COC3)cc2[nH]1 [Compound 97] | 7.00 to 7.70 | 6.40 to 7.00 | ≤ 6.40 | 6.40 to 7.00 | – | – | – | –
20 | Cc1nc2ccc(Oc3ccc4ncc(-c5cnn(C(C)(C)C(=O)O)c5)nc4c3Cl)c(F)c2[nH]1 [Compound 115] | ≤ 6.40 | ≤ 6.40 | ≤ 6.40 | ≤ 6.40 | – | – | – | –
21 | Cc1nc2ccc(Oc3ccc4ncc(-c5cnn(CC6CC(F)(F)C6)c5)nc4c3C)cc2[nH]1 [Compound 302] | 6.40 to 7.00 | 6.40 to 7.00 | ≤ 6.40 | 6.40 to 7.00 | – | – | – | –
22 | Clc1c(Oc2ccn3cncc3c2)ccc2ncc(-c3cnn(CC4CCN(C5COC5)CC4)c3)nc12 [Compound 312] | ≤ 6.40 | ≤ 6.40 | ≤ 6.40 | ≤ 6.40 | – | – | – | –
23 | COCCN1CCC(n2cc(-c3cnc4ccc(Oc5ccc6nc(C)[nH]c6c5)c(Cl)c4n3)cn2)CC1 [Compound 316] | 7.00 to 7.70 | 7.00 to 7.70 | ≤ 6.40 | 7.00 to 7.70 | – | – | – | –
24 | Cc1nc2ccc(Oc3ccc4ncc(-c5cnn(C6CN(c7cccc(N(C)C)n7)C6)c5)nc4c3Cl)cc2[nH]1 [Compound 190] | ≤ 6.40 | ≤ 6.40 | ≤ 6.40 | ≤ 6.40 | – | – | – | –
25 | Cc1nc2ccc(Oc3ccc4ncc(-c5cnn(CCN6C[C@H]7C[C@@H]6CO7)c5)nc4c3Cl)cc2[nH]1 [Compound 234] | 7.00 to 7.70 | 7.00 to 7.70 | ≤ 6.40 | 7.00 to 7.70 | – | – | – | –
26 | Cc1nc2ccc(Oc3ccc4ncc(-c5cnn(CC6OCCCO6)c5)nc4c3Cl)cc2[nH]1 [Compound 389] | 7.00 to 7.70 | 6.40 to 7.00 | ≤ 6.40 | 7.00 to 7.70 | – | – | – | –
27 | CCOC(Cn1cc(-c2cnc3ccc(Oc4ccc5nc(C)[nH]c5c4)c(Cl)c3n2)cn1)OCC [Compound 388] | 6.40 to 7.00 | 6.40 to 7.00 | ≤ 6.40 | 6.40 to 7.00 | – | – | – | –
28 | Cc1nc2ccc(Oc3ccc4ncc(-c5cnn(CC(=O)NCCO)c5)nc4c3Cl)cc2[nH]1 [Compound 348] | ≤ 6.40 | ≤ 6.40 | ≤ 6.40 | 6.40 to 7.00 | – | – | – | –
29 | Cc1nc2ccc(Oc3ccc4ncc(-c5cnn(CCC6CCN(C)CC6)c5)nc4c3Cl)cc2[nH]1 [Compound 305] | > 7.70 | > 7.70 | 6.40 to 7.00 | > 7.70 | – | – | – | –
30 | Cc1nc2ccc(Oc3ccc4ncc(-c5cnn(C6CCN(C(=O)N7CC(O)C7)CC6)c5)nc4c3Cl)cc2[nH]1 [Compound 189] | 7.00 to 7.70 | 7.00 to 7.70 | ≤ 6.40 | 7.00 to 7.70 | – | – | – | –
31 | Cc1nc2ccc(Oc3ccc4ncc(-c5cnn(CC6CCN(C)S(=O)(=O)C6)c5)nc4c3Cl)cc2[nH]1 (stereo not drawn) [Compound 240] | 7.00 to 7.70 | 7.00 to 7.70 | 6.40 to 7.00 | 7.00 to 7.70 | – | – | – | –
32 | Cc1nc2ccc(Oc3ccc4ncc(-c5cnn(C6CN(c7cncc(F)c7)C6)c5)nc4c3Cl)cc2[nH]1 [Compound 196] | 6.40 to 7.00 | 6.40 to 7.00 | ≤ 6.40 | 6.40 to 7.00 | – | – | – | –
33 | Cc1nc2ccc(Oc3ccc4ncc(-c5cnn(CCC6CCN(C7COC7)CC6)c5)nc4c3Cl)cc2[nH]1 [Compound 294] | 7.00 to 7.70 | > 7.70 | 6.40 to 7.00 | 7.00 to 7.70 | – | – | – | –
